Test results reported in ChEMBL document CHEMBL1157845, “Structure-activity relationship of new anti-tuberculosis agents derived from oxazoline and oxazole benzyl esters” (Eur J Med Chem, 2010).
≈ marks a conversion by molar mass, not a printed value. Calls of active or inactive are those of the source. No rule for the calls is given here.

Key:
[1] = system: Mycobacterium tuberculosis; assay: Antimycobacterial activity against Mycobacterium tuberculosis Erdman infected in BALB/c mouse assessed as reduction of bacterial load at 200 mg/kg, po qd for 5 days per week administered 60 days after infection measured after 85 days post infection; type: functional, organism-based; set-up: dose 200 mg/kg
[2] = system: Mycobacterium tuberculosis; assay: Antimycobacterial activity against Mycobacterium tuberculosis H37Rv ATCC 27294 in GAST medium after 1 week by microplate alamar blue assay; type: functional; settings: H37Rv ATCC 27294, 168 h
[3] = system: Mycobacterium tuberculosis; assay: Antimycobacterial activity against Mycobacterium tuberculosis H37Rv ATCC 27294 in GAS medium after 1 week by microplate alamar blue assay; type: functional; settings: H37Rv ATCC 27294, 168 h

SMILES	Activity [1]	MIC [2]	MIC [3]
COc1ccc(C2=N[C@H](C(=O)OCc3ccccc3)CO2)cc1OC	inactive	21.6 µM (≈ 7.37 µg/mL)	39 µM (≈ 13.3 µg/mL)
O=C(OCc1ccccc1)[C@@H]1COC(c2ccc([N+](=O)[O-])cc2F)=N1	inactive	8.7 µM (≈ 3 µg/mL)	13 µM (≈ 4.48 µg/mL)
COc1ccccc1C1=N[C@H](C(=O)OCc2ccccc2)CO1	inactive	29.2 µM (≈ 9.09 µg/mL)	37 µM (≈ 11.5 µg/mL)
O=C(OCc1ccccc1)[C@@H]1COC(c2ccc(Br)nc2)=N1	inactive	21.1 µM (≈ 7.62 µg/mL)	22.9 µM (≈ 8.27 µg/mL)
COc1ccc(-c2nc(C(=O)OCc3ccccc3)c(C)o2)cc1	inactive	15.8 µM (≈ 5.11 µg/mL)	47.4 µM (≈ 15.3 µg/mL)
O=C(OCc1ccccc1)c1coc(-c2cccnc2Oc2ccccc2)n1	inactive	91.4 µM (≈ 34 µg/mL)	6.86 µM (≈ 2.55 µg/mL)
CCCCOc1ccc(-c2nc(C(=O)OCc3ccccc3)co2)cc1	inactive	3.83 µM (≈ 1.35 µg/mL)	1.76 µM (≈ 0.618 µg/mL)
O=C(OCc1ccccc1)[C@@H]1COC(c2ccccc2Cl)=N1	inactive	15.2 µM (≈ 4.8 µg/mL)	49.9 µM (≈ 15.8 µg/mL)
C[C@@H]1OC(c2ccccc2OCc2ccccc2)=N[C@@H]1C(=O)OCc1ccccc1	inactive	> 128 µM	> 128 µM
O=C(OCc1ccccc1)[C@@H]1COC(c2ccc([N+](=O)[O-])cc2OCc2ccccc2)=N1	inactive	4.86 µM (≈ 2.1 µg/mL)	15.6 µM (≈ 6.75 µg/mL)
CCOc1ccc(C2=N[C@H](C(=O)OCc3ccccc3)CO2)cc1	inactive	30.5 µM (≈ 9.92 µg/mL)	60.6 µM (≈ 19.7 µg/mL)
O=C(OCc1ccccc1)[C@@H]1COC(c2ccc(Cl)cc2)=N1	inactive	14.9 µM (≈ 4.7 µg/mL)	61 µM (≈ 19.3 µg/mL)
COc1ccc(CC2=N[C@H](C(=O)OCc3ccccc3)CO2)cc1	inactive	> 128 µM	> 128 µM
COc1ccc(C2=N[C@H](C(=O)OCc3ccccc3)CO2)cc1Cl	inactive	7.58 µM (≈ 2.62 µg/mL)	60.7 µM (≈ 21 µg/mL)
CCOc1ccc(C2=N[C@H](C(=O)OCc3ccccc3)CO2)cc1F	inactive	3.91 µM (≈ 1.34 µg/mL)	50.5 µM (≈ 17.3 µg/mL)
O=C(OCc1ccccc1)[C@@H]1COC(c2ccc(F)cc2[N+](=O)[O-])=N1	inactive	40.4 µM (≈ 13.9 µg/mL)	30.7 µM (≈ 10.6 µg/mL)
O=C(OCc1ccccc1)[C@@H]1COC(c2cccnc2)=N1	inactive	92.9 µM (≈ 26.2 µg/mL)	53.3 µM (≈ 15 µg/mL)
O=C(OCc1ccccc1)c1coc(-c2cccc(Br)c2)n1	inactive	6.08 µM (≈ 2.18 µg/mL)	1.93 µM (≈ 0.691 µg/mL)
Nc1ccc(C2=N[C@H](C(=O)OCc3ccccc3)CO2)cc1	inactive	26.8 µM (≈ 7.94 µg/mL)	25.4 µM (≈ 7.53 µg/mL)
O=C(OCc1ccccc1)[C@@H]1COC(c2cccc(Br)c2)=N1	inactive	52.5 µM (≈ 18.9 µg/mL)	24.2 µM (≈ 8.72 µg/mL)
N#Cc1cccc(C2=N[C@H](C(=O)OCc3ccccc3)CO2)c1	inactive	75.1 µM (≈ 23 µg/mL)	47.2 µM (≈ 14.5 µg/mL)
O=C(OCc1ccccc1)c1coc(-c2cnccn2)n1	inactive	22.5 µM (≈ 6.33 µg/mL)	7.32 µM (≈ 2.06 µg/mL)
COc1ccc(CNC(=O)c2coc(-c3cccc(Cl)c3)n2)cc1OC	inactive	48.1 µM (≈ 17.9 µg/mL)	118 µM (≈ 44 µg/mL)
O=C(OCc1ccccc1)[C@@H]1COC(c2ccncc2)=N1	inactive	81.3 µM (≈ 23 µg/mL)	55.6 µM (≈ 15.7 µg/mL)
N#Cc1cccc(-c2nc(C(=O)OCc3ccccc3)co2)c1	inactive	60.5 µM (≈ 18.4 µg/mL)	25.2 µM (≈ 7.67 µg/mL)
CCCOc1ccc(-c2nc(C(=O)OCc3ccccc3)co2)cc1	inactive	1.94 µM (≈ 0.655 µg/mL)	3.48 µM (≈ 1.17 µg/mL)
O=C(OCc1ccccc1)[C@@H]1COC(Cc2ccccc2)=N1	inactive	> 128 µM	> 128 µM

SMILES	Activity [1]	MIC [2]	MIC [3]
O=C(OCc1ccccc1)[C@@H]1COC(c2cnccn2)=N1	inactive	> 128 µM	61.2 µM (≈ 17.3 µg/mL)
COc1ccc(C2=N[C@H](C(=O)OCc3ccccc3)[C@H](C)O2)cc1	inactive	37.8 µM (≈ 12.3 µg/mL)	54.1 µM (≈ 17.6 µg/mL)
O=C(OCc1ccccc1)[C@@H]1COC(c2cccnc2Oc2ccccc2)=N1	inactive	> 128 µM	58.8 µM (≈ 22 µg/mL)
COC(=O)[C@@H]1COC(c2ccc([N+](=O)[O-])cc2)=N1	inactive	> 128 µM	> 128 µM
O=C(O)[C@@H]1COC(c2cccc(Cl)c2)=N1	inactive	106 µM (≈ 23.9 µg/mL)	> 128 µM
COc1cccc(C2=N[C@H](C(=O)OCc3ccccc3)CO2)c1	inactive	42.5 µM (≈ 13.2 µg/mL)	24.8 µM (≈ 7.72 µg/mL)
O=C(OCc1ccccc1)[C@@H]1COC(c2cncc(Br)c2)=N1	inactive	26.6 µM (≈ 9.61 µg/mL)	27.6 µM (≈ 9.97 µg/mL)
O=C(OCc1ccccc1)[C@@H]1COC(c2ccc(Cl)c(F)c2)=N1	inactive	6.49 µM (≈ 2.17 µg/mL)	52 µM (≈ 17.4 µg/mL)
CCCCOc1ccc(C2=N[C@H](C(=O)OCc3ccccc3)CO2)cc1	inactive	5.11 µM (≈ 1.81 µg/mL)	2.72 µM (≈ 0.961 µg/mL)
CCCOc1ccc(C2=N[C@H](C(=O)OCc3ccccc3)CO2)cc1	inactive	22.4 µM (≈ 7.6 µg/mL)	2.97 µM (≈ 1.01 µg/mL)
O=C(OCc1ccccc1)c1coc(-c2ccncc2)n1	inactive	6.1 µM (≈ 1.71 µg/mL)	1.42 µM (≈ 0.398 µg/mL)
Cc1ccc(C2=N[C@H](C(=O)OCc3ccccc3)CO2)cc1	inactive	27.3 µM (≈ 8.06 µg/mL)	15.5 µM (≈ 4.58 µg/mL)
O=C(OCc1ccccc1)c1coc(-c2ccc(OCc3ccccc3)c(F)c2)n1	inactive	3.86 µM (≈ 1.56 µg/mL)	3.03 µM (≈ 1.22 µg/mL)
O=C(OCc1ccccc1)[C@@H]1COC(c2cccc(Cl)c2OCc2ccccc2)=N1	inactive	34 µM (≈ 14.3 µg/mL)	6.3 µM (≈ 2.66 µg/mL)
Cc1oc(-c2ccccc2O)nc1C(=O)O	inactive	> 128 µM	> 128 µM
O=C(O)[C@@H]1COC(c2ccccc2O)=N1	inactive	> 128 µM	> 128 µM
CC(C)Oc1ccc(C2=N[C@H](C(=O)OCc3ccccc3)CO2)cc1	inactive	14.9 µM (≈ 5.06 µg/mL)	3.2 µM (≈ 1.09 µg/mL)
COC(=O)[C@H]1N=C(c2ccccc2)O[C@H]1C	inactive	> 128 µM	> 128 µM
O=C(OCc1ccccc1)c1coc(-c2cccnc2Sc2ccccc2)n1	inactive	> 128 µM	8 µM (≈ 3.11 µg/mL)
O=C(OCc1ccccc1)[C@@H]1COC(c2cccnc2Sc2ccccc2)=N1	inactive	13.4 µM (≈ 5.23 µg/mL)	17.8 µM (≈ 6.95 µg/mL)
O=C(OCc1ccccc1)c1coc(-c2ccc(Cl)c(F)c2)n1	inactive	22.4 µM (≈ 7.43 µg/mL)	2.87 µM (≈ 0.952 µg/mL)
O=C(OCc1ccccc1)[C@@H]1COC(c2cncc(-c3ccccc3)c2)=N1	inactive	29.8 µM (≈ 10.7 µg/mL)	12.5 µM (≈ 4.48 µg/mL)
C[C@@H]1OC(c2ccccc2)=N[C@@H]1C(=O)O	inactive	> 128 µM	> 128 µM
Cc1ccc(-c2nc(C(=O)OCc3ccccc3)co2)cc1	inactive	7.68 µM (≈ 2.25 µg/mL)	12.8 µM (≈ 3.77 µg/mL)
COc1ccccc1-c1nc(C(=O)OCc2ccccc2)co1	inactive	7.54 µM (≈ 2.33 µg/mL)	3.88 µM (≈ 1.2 µg/mL)
CC(C)Oc1ccc(-c2nc(C(=O)OCc3ccccc3)co2)cc1	inactive	3.21 µM (≈ 1.08 µg/mL)	1.95 µM (≈ 0.658 µg/mL)
O=C(OCc1ccccc1)c1coc(-c2cccnc2S(=O)(=O)c2ccccc2)n1	inactive	> 128 µM	66.2 µM (≈ 27.8 µg/mL)
